# Assay results: patent US5798093A (priority 1997, dated 1998)
# Legend:
# [1] = test system: Compound 48/80-induced scratching; assay: Anti-pruritic activity, mouse scratch model (Compound 48/80-induced scratching); type: in vivo, mouse (male Swiss albino); settings: s.c.; for Mean % Inhibition of Scratching: Compound 48/80 challenge, 30 min; for antagonism of Compound 48/80-induced scratching (in words): dose-related
# Procedure: Testing was performed in a mouse scratch model under blind conditions.
# Groups of 8-10 male Swiss albino mice (Hilltop Lab Animals, Inc., Scottsdale, Pa.), weighing […], were used in the testing. They were housed under controlled temperature of 23-25° C. Food and water were freely available. Before the experiments, the mice were weighed, put into individual boxes and allowed to acclimate for 30 min.
# Vehicle used to dissolve the test compounds: 20% w/w cremophor EL.
# […] of the vehicle (3-5 doses, n-8-10) was injected s.c. into the back of the neck of mice 20 min. before challenging them with 100 μl of Compound 48/80 (2 mg/ml; 50 μg) injected s.c. into the back of the neck.
# To each mouse of a group of 8-10 mice previously subjected to the standard challenge various doses of the compounds, to be tested for anti-pruritic activity, were administered s.c. into the back of the neck.
# For each group of 8-10 mice, the mean values for scratching were normalized to relative % antagonism of scratching and then plotted vs. dose of test compounds. Interval estimates of mean A50 were determined by nonlinear regression analysis (Kalcida Graph) and mean % inhibition of scratching was calculated.
# [2] = test system: warm water induced tail withdrawal reflex / castor oil diarrhea; settings: po
# From the text: Peripheral selectivity is defined by the ratio of the ED50 in the tail-withdrawal assay over the ED50 in the anti-diarrheal assay.
# Measure of Centrally-Mediated Opiod Analgesia by the Tail-Withdrawal Assay (Janssen, P. A. J.; Niemegeers, C. J. E.; Dony, J. G. H., The Inhibitory effect of Fentanyl and other morphine-like analgesics on the warm water induced tail withdrawal reflex in rats. Arzneimittel-Forschung 1963, 13, 502-507.)
# Young female Wistar rats (170-210 g body weight) are used only once. […] Around 8:30 AM the "normal" reaction time of each rat is determined by immersing the lower 5 cm portion of the tail in a cup freshly filled with water from a large constant temperature (55° C.) bath until the typical tail withdrawal response is observed. […] The reaction time is measured in 0.5 second units with a stopwatch. […] Periodically thereafter (i.e., 1/4, 1/2, 1, 2, 3, 4, 5 and 6 hours after dosage) the reaction time is again measured by trained technicians unaware of the nature of the compounds. Results of these studies are expressed as ED50 concentration values (mg/kg), calculated as the dose producing a tail withdrawal latency equal to half the difference between the maximum latency (≤15 seconds) and the baseline latency (6 to 8 seconds). […]
# [3] = reported; antidiarrheal use; cited from earlier work
# itch = settings: cited from earlier work
molecule,measurement,setting,value
"O=C(N1CCCCC1)C(CCN1CCC(O)(c2ccccc2)CC1)(c1ccccc1)c1ccccc1 [Compound 1, 1-[4-(4-Hydroxy-4-phenyl-1-piperidino)-2,2-diphenylbutyryl]piperidine]",Mean % Inhibition of Scratching,[1]; 2.5 mg/kg,32%
same,Mean % Inhibition of Scratching,[1]; 5.0 mg/kg,65%
same,Mean % Inhibition of Scratching,[1]; 10.0 mg/kg,83%
same,antagonism of Compound 48/80-induced scratching (in words),[1],antagonized Compound 48/80-induced scratching in a dose-related manner
"CN(C)C(=O)C(CCN1CCC(O)(c2ccc(Br)cc2)CC1)(c1ccccc1)c1ccccc1 [Compound 3, 4-(p-Bromophenyl)-4-hydroxy-N,N-dimethyl-α,α-diphenyl-1-piperidinebutyramide]",antagonism of Compound 48/80-induced scratching (in words),[1],antagonized Compound 48/80-induced scratching in a dose-related manner
O=C(N1CCCC1)C(CCN1CCC(O)(c2ccc(Cl)c(Cl)c2)CC1)(c1ccccc1)c1ccccc1 [Compound 4],Peripheral Selectivity (ED50tw /ED50 Castor Oil),[2],> 640
"CN(C)C(=O)C(CCN1CCC(O)(c2ccc(Cl)cc2)CC1)(c1ccccc1)c1ccccc1 [Compound 6, 4-(p-Chlorophenyl)-4-hydroxy-N,N-dimethyl-α,α-diphenyl-1-piperidinebutyramide]",CNS effects (in words),[3],devoid of CNS effects
same,antagonism of Compound 48/80-induced scratching (in words),[1],antagonized Compound 48/80-induced scratching in a dose-related manner
"CN(C)C(=O)C(CCN1CCC(O)(c2ccc(Cl)cc2)CC1)(c1ccccc1)c1ccccc1.Cl [Example 2, 4-(p-Chlorophenyl)-4-hydroxy-N,N-dimethyl-α,α-diphenylpiperidine-1-butyramide hydrochloride]",CNS effects (in words),[3],completely free of the undesirable CNS effects
NCCc1c[nH]cn1 [histamine],induction of itch (in words),itch; humans / application to skin,produces itch but not pain
CN1CC[C@]23c4c5ccc(O)c4O[C@H]2[C@@H](O)C=C[C@H]3[C@H]1C5 [morphine],"generalized itching, incidence",itch; i.v.,about 1 % of patients
cyclosporin A,inhibition of itch in atopic dermatitis (in words),itch; atopic dermatitis,"itch is not inhibited by antihistamines, but by cyclosporin A"
